According to patent US12467927B2, “Fluorescence resonance energy transfer (FRET) nanoprobe and preparation method and use thereof” (QILU UNIVERSITY OF TECHNOLOGY, priority 2022, dated 2025):

Experiment: Zeta potential determination
Assay type: physicochemical
Procedure: Size and Zeta potential determinations were conducted on a Zetasizer Nano ZS (ZEN 3600, Malvern Instruments Ltd.). Transmission electron microscopy (TEM) images were determined by a transmission electron microscope (JEM-2100, JEOL). The fluorescence was measured by an F-4600 Fluorescence Spectrophotometer (Japan); the confocal fluorescence images of cells were obtained by a Nikon laser confocal microscope (Nikon, Japan).
The synthesized HMSN were characterized by TEM and dynamic light scattering (DLS). […] Meanwhile, the particle size distribution measured by DLS was mainly around 140 nm (FIG. 2). The experimental data was matched up with each other. […] The particle size of PAMAM (G=1.5) dendrimer was characterized by TEM. […] The particle size distribution measured by DLS was around 8 nm (FIG. 5). […] Meanwhile, to prevent the early leakage of DOX, the DOX was encapsulated by the RVRR peptide and PAMAM/TPE. To verify the successful encapsulation of HMSN/DOX, TEM characterization was conducted. […] Characterized by DLS and Zeta potential, the particle size distribution of the transparent thin layer structure was around 160 nm (FIG. 7), and a Zeta potential was 3.25 mV (FIG. 8).

## O=C(O)c1ccc(C(=C(c2ccccc2)c2ccccc2)c2ccccc2)cc1 [TPE-COOH, 1-(4-carboxyphenyl)-1,2,2-triphenylethylene]
  zeta potential: −8.6 mV

## COc1cccc2c1C(=O)c1c(O)c3c(c(O)c1C2=O)C[C@@](O)(C(=O)CO)C[C@@H]3O[C@H]1C[C@H](N)[C@H](O)[C@H](C)O1 [DOX, doxorubicin]
  zeta potential: 24.3 mV
